# According to patent US9687483B2, “Treatment of cerebral cavernous malformations and cerebral aneurysms with Rho kinase inhibitors” (priority 2015, dated 2017):
# Values joined by “and” are separate entries in the source; they are usually repeats but may differ in a detail not shown here. Equal entries are not always repeated. Where two headings read alike, the source gives them in different places.
# Assays:
# cadherin in HUVEC cells = assay: Cadherin expression in HUVEC, Western blot; format: cell-based, human; settings: 50 μM, 24 hr, vs control; p<0.05
# [1] = target: ROCK I recombinantly-produced kinase domain (Homo sapiens (Human), UniProt Q13464); settings: read-out: ROCK I IC50; ATP 10 μM, substrate 200 nM; Fasudil mean ± SD of 3-4 experiments; BA-1049 two individual experiments
# [2] = test system: ROCK II recombinantly-produced kinase domain; settings: ROCK II versus ROCK I
# [3] = target: ROCK II recombinantly-produced kinase domain (Homo sapiens (Human), UniProt O75116); settings: read-out: ROCK II IC50; ATP 10 μM, substrate 200 nM; Fasudil mean ± SD of 3-4 experiments; BA-1049 two individual experiments
# HUVEC cells [4] = assay: Endothelial cell actin cytoskeleton, Rhodamine-phalloidin staining; format: cell-based, human; settings: 10 μM or 25 μM
# Caco-2 cell monolayers [5] = assay: Caco-2 permeability assay
# HUVEC cells [6] = assay: In vitro endothelial tubulogenesis assay on ECMatrix; format: cell-based, human; settings: 10 or 50 μM (or μg/mL); 6 hr to 16 hr; vs untreated cells
# occludin in HUVEC cells = assay: Occludin expression in HUVEC, Western blot; format: cell-based, human; settings: for Effect on junctional protein expression at lower dose: 25 μM
# Caco-2 cell monolayers [7] = settings: for Transport mechanism across Caco-2 monolayers: from B to A/A to B Papp ratios; for Caco-2 cell permeability (classification): from measured Papp values
# HUVEC cells [8] = test system: HUVEC cells
# [9] = test system: induced intracranial saccular aneurysms in Sprague Dawley rats; assay: Reduction of prevalence/size of existing aneurysms in vivo; parameters: species or system rat
# [10] = test system: induced intracranial saccular aneurysms in Sprague Dawley rats; assay: Prophylactic reduction of intracranial aneurysm burden in vivo; parameters: species or system rat; settings: vs control rats
# in vitro [11] = settings: human, Caco-2, pH 7.4
# [12] = known values for controls; cited from earlier work
# in vitro [13] = settings: human, plasma
# [14] = human plasma, 24 hr dialysis, 37° C., mean of 2 replicates
# [15] = both, human, 24 h, 35 µM, pH 7.4
# [16] = both, human, plasma, 24 h, 35 µM, pH 7.4
# Chain of ROCK I recombinantly-produced kinase domain (Q13464 76-338): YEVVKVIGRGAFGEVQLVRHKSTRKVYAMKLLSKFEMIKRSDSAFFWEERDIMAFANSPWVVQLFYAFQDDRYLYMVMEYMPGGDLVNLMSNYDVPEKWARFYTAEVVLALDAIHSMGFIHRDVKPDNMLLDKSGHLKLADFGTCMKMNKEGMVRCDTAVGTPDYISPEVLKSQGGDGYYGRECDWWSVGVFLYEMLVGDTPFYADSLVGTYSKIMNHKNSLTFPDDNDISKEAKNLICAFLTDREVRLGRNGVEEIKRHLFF
smiles,measurement,setting,value
CC(N)C1CCN(S(=O)(=O)c2cccc3cnccc23)CC1.Cl.Cl (racemic) [BA-1049],Cadherin increase,cadherin in HUVEC cells,1.2 fold
same,IC50,[1],21 µM
same,Selectivity for Rock II,[2],13.1 -fold
same,IC50,[3],1600 nM and 940 nM
same,Effect on actin stress fibers,HUVEC cells [4],disrupted stress fibers
same,Effect on junctional (peripheral) actin distribution,HUVEC cells [4],little to no effect
same,B-A/A-B Papp Ratio,Caco-2 cell monolayers [5],1.31
same,Endothelial cell tube formation,HUVEC cells [6],some tubes are visible but are not always closed and are thin
same,Effect on junctional protein expression at lower dose,occludin in HUVEC cells,no significant effect
same,Occludin increase,"occludin in HUVEC cells; 50 μM, 24 hr, vs control, p<0.05",1.3 fold
same,Bound,human plasma proteins; [14],7.26%
same,Unbound,human plasma proteins; [14],92.7%
same,Papp A to B,"Caco-2 cell monolayers [7]; apical to basolateral, 60 min, pH 7.4",107 nm/s
same,Papp B to A,"Caco-2 cell monolayers [7]; basolateral to apical, 60 min, pH 7.4",141 nm/s
same,Transport mechanism across Caco-2 monolayers,Caco-2 cell monolayers [7],passively transported
same,Caco-2 cell permeability (classification),Caco-2 cell monolayers [7],intermediate to high
same,Disruption of proliferation compared with Fasudil at a given concentration,HUVEC cells [8]; 72 hr,did not disrupt proliferation to the same extent as Fasudil
same,Proliferation of endothelial cells,HUVEC cells [8]; 72 hr incubation,reduced proliferation
same,Concentration at which decrease in cell proliferation appears,"HUVEC cells [8]; 72 hr, p<0.05 or p<0.01",1 µM
O=S(=O)(c1cccc2cnccc12)N1CCCNCC1 [Fasudil],Cadherin increase,cadherin in HUVEC cells,1.2 fold
same,Effect on junctional (peripheral) actin distribution,HUVEC cells [4],disrupted the peripheral actin to a greater extent than the stress fibers
same,Endothelial cell tube formation,HUVEC cells [6],some tubes are visible but are not always closed and are thin
same,Effect on junctional protein expression at lower dose,occludin in HUVEC cells,no significant effect
same,Occludin decrease,"occludin in HUVEC cells; 50 μM, 24 hr, vs control, p<0.001",50%
same,Total number of saccular aneurysms in 6 mo and 8 mo rats,[9]; vs baseline (4 mo) results,reduces
same,Average aneurysm size and area,[9]; vs control rats,reduces
same,Level of inflammatory invasion in a given aneurysm,[9]; vs control rats,reduces
same,Number of iron deposits near a given aneurysm,[9]; vs control rats,reduces
same,Rho kinase activity in the endothelial/smooth muscle cells of the aneurysm wall,[9]; vs control rats,reduces
same,Total number of saccular aneurysms,[9]; vs control rats,reduces
same,Bound,human plasma proteins; [15],19.2%
same,Unbound,human plasma proteins; [16],81.8%
same,Average aneurysm size and area,[10],reduces
same,Level of inflammatory invasion in a given aneurysm,[10],reduces
same,Number of iron deposits near a given aneurysm,[10],reduces
same,Rho kinase activity in the endothelial and smooth muscle cells of the aneurysm wall,[10],reduces
same,Total number of saccular aneurysms,[10]; daily or weekly dose for 2 mo,reduces
same,Transport mechanism across Caco-2 monolayers,Caco-2 cell monolayers [7],passively transported
same,Caco-2 cell permeability (classification),Caco-2 cell monolayers [7],high
same,"Papp A→B at 60 min, 35 µM",in vitro [11],18.9 ×10⁻⁶ cm/s
same,"Papp B→A at 60 min, 35 µM",in vitro [11],18.5 ×10⁻⁶ cm/s
"OC[C@@H](O)[C@@H](O)[C@H](O)[C@H](O)CO [[^3H]-Mannitol, D-[1-^3H(N)]Mannitol]",Papp A→B at 60 min,in vitro [11],2.62 ± 0.81 ×10⁻⁶ cm/s
same,"Papp A→B at 60 min, 35 µM",in vitro [11],1.01 ± 0.146 ×10⁻⁶ cm/s
same,Papp B→A at 60 min,in vitro [11],1.36 ± 0.362 ×10⁻⁶ cm/s
same,"Papp B→A at 60 min, 35 µM",in vitro [11],0.821 ± 0.362 ×10⁻⁶ cm/s
same,"efflux ratio at 60 min, 35 µM",in vitro [11],0.81
same,% absorption in humans,[12],15%
"CC(C)NC[C@H](O)COc1cccc2ccccc12 [[^3H]-Propranolol, L-(−)-[4-^3H]propranolol]",Bound,human plasma proteins; [15],91.3%
same,Unbound,human plasma proteins; [16],8.67%
same,fraction unbound,in vitro [13],0.121
same,Papp A→B at 60 min,in vitro [11],32.3 ± 5.4 ×10⁻⁶ cm/s
same,"Papp A→B at 60 min, 35 µM",in vitro [11],36 ± 1.65 ×10⁻⁶ cm/s
same,Papp B→A at 60 min,in vitro [11],31 ± 5.27 ×10⁻⁶ cm/s
same,"Papp B→A at 60 min, 35 µM",in vitro [11],27.8 ± 3.68 ×10⁻⁶ cm/s
